{
  "source": "patent US12409182B2",
  "about": "“Compositions and uses thereof for treatment of idiopathic preterm birth” (UNIVERSITY OF SOUTH FLORIDA, priority 2020, dated 2025)",
  "key": {"FKBP51 [1]": {"system": "FKBP51", "test": "Dexamethasone-induced FKBP51 protein levels in decidual cell monolayers (immunoblot)", "format": "cell-based", "conditions": "confluent leukocyte-free term decidual cells, 10^-7 M Dex + compound, 24 h", "method": "Three endogenous biochemicals (CC #1, CC #2, CC #3), which exist in human blood/tissues were tested as potential inhibitors of FKBP51 expression/action and confirmed that dexamethasone-induced inhibits FKBP51 expression in decidual cell cultures by all three compounds (FIG. 1)."}, "[2]": {"system": "Fkbp5+/+ and Fkbp5-/- mice", "test": "Maternal dexamethasone or corticosterone injection, gestational length in Fkbp5+/+ or Fkbp5-/- mice", "format": "in vivo", "conditions": "corticosterone 10 mg/kg s.c. daily E8 through E18, Fkbp5+/+ or Fkbp5-/- mice", "method": "Timing of Labor in Fkbp5^+/+ and Fkbp5^−/− Mice. To examine the effect of deletion of the Fkbp5 gene on birth timing, female Fkbp5^+/+ and Fkbp5^−/− mice (6-8 weeks-old) were mated with an adult Fkbp5^+/+ male (12-16 weeks old) by housing 1:1 for 4 h (9.00 am-1.00 pm). Pregnancy was confirmed by the presence of a vaginal plug or sperm in vaginal smears; gestational day (E) was designated at that time (10.00 am) as 0 dpc of pregnancy. The timing of delivery was monitored from E18 through E21 by observing mice every 4 h upon completion of delivery, and gestational length was calculated. Litter size, numbers of live and dead pups were recorded. Additionally, to determine whether there was a relative contribution of fetal genotype on birth timing, female Fkbp5^−/− mice were also mated with an adult male Fkbp5^−/− mice as described above and timing of labor was recorded.\nMaternal Dexamethasone or Corticosterone injection. Dexamethasone-21-phosphate disodium salt (DEX; Sigma-Aldrich, St. Louis, MO) suspended in sterile PBS was administered intraperitoneally at 200 μg/kg. Corticosterone (CORT; Sigma-Aldrich) was dissolved in ethyl alcohol and diluted in PBS before injection and administered subcutaneously at 10 mg/kg. […]"}, "FKBP51 [3]": {"system": "FKBP51", "conditions": "cultured primary human decidual cells; cited from earlier work"}, "[4]": {"system": "maternal stress induced pregnant mice", "test": "Maternal restraint stress induced preterm birth and fetal growth restriction in wild-type mice", "format": "in vivo", "conditions": "for litter size: 0.5 mg/kg daily i.p. GD14 to GD18, maternal stress administered mice; for maternal stress induced fetal growth restriction (pup birth weight) / maternal stress induced preterm birth (gestational length): 0.5 mg/kg daily i.p. GD14 to GD18, restraint stress GD8-GD18, vs placebo", "method": "(§1) Wild-type adult female mice were mated with adult males by housing 1:1 for 4 h (9.00 am-1.00 pm). Pregnancy was confirmed by observing vaginal plug and the presence of sperm in vaginal smears, which was designated as gestation day (GD) 0 dpc (10.00 am). Time-mated pregnant mice were randomly assigned into non-stress or restraint stress (ST) groups. Restraint stress was administered in three sessions for 1 h using standard restraint chambers starting on GD 8 through GD 18, while the control group was left undisturbed during pregnancy. Before first restrained stress administration, daily intraperitoneal injection of CC #1 (0.5 mg/kg) or CC #2 (0.5 mg/kg) or placebo (PBS) was administered in ST-mice from GD14 to GD 18. The timing of delivery was monitored. Pups weight, litter size, numbers of live and dead pups were recorded.\nas §1, with “Experimental design to test effects of CC #1 and CC #2 administration in maternal stress induced pregnant mice (FIG. 2). Wild-type adult” for “Wild-type adult”, “stress was performed in three” for “stress was administered in three”, “daily intraperitoneal (I.P.) injection of” for “daily intraperitoneal injection of”"}, "Srd5a1 deficient mice": {"system": "Srd5a1 deficient mice", "conditions": "Srd5a1 deficient mice (27% delivery rate without treatment); cited from earlier work"}},
  "data": [
    {"molecule": "CCCCCCCC/C=C(\\CCCCCCCC(=O)O)[N+](=O)[O-]", "note": "[CC #3, 9-nitro-9E-octadecenoic acid]", "values": [
      {"measurement": "dexamethasone-induced FKBP51 protein levels", "setting": "FKBP51 [1]", "value": "inhibits dexamethasone-induced FKBP51 protein levels"}
    ]},
    {"molecule": "C[C@]12C[C@H](O)[C@H]3[C@@H](CCC4=CC(=O)CC[C@@]43C)[C@@H]1CC[C@@H]2C(=O)CO", "note": "[corticosterone, Corticosterone]", "values": [
      {"measurement": "gestational length", "setting": "[2]", "value": "did not shorten gestation"}
    ]},
    {"molecule": "CC[C@@H]1C[C@H]2[C@@H]3CCC4=CC(=O)CC[C@@H]4[C@H]3CC[C@]2(C)[C@H]1C(=O)CO", "note": "[Organon 2058]", "values": [
      {"measurement": "FKBP51 levels", "setting": "FKBP51 [3]", "value": "minimal stimulatory effects"}
    ]},
    {"molecule": "CC(=O)O[C@]1(C(C)=O)CC[C@H]2[C@@H]3C[C@H](C)C4=CC(=O)CC[C@]4(C)[C@H]3CC[C@@]21C", "note": "[medroxyprogesterone acetate]", "values": [
      {"measurement": "FKBP51 levels", "setting": "FKBP51 [3]", "value": "up-regulated"}
    ]},
    {"molecule": "CCCCCCCC/C(=C\\CCCCCCCC(=O)O)[N+](=O)[O-]", "note": "[CC #2, 10-nitro-9E-octadecenoic acid]", "values": [
      {"measurement": "dexamethasone-induced FKBP51 protein levels", "setting": "FKBP51 [1]", "value": "inhibits dexamethasone-induced FKBP51 protein levels"},
      {"measurement": "litter size", "setting": "[4]", "value": "did not affect litter size"},
      {"measurement": "maternal stress induced fetal growth restriction (pup birth weight)", "setting": "[4]", "value": "prevent maternal stress induced FGR"},
      {"measurement": "maternal stress induced preterm birth (gestational length)", "setting": "[4]", "value": "prevent maternal stress induced PTB"}
    ]},
    {"molecule": "CN(C)c1ccc([C@H]2C[C@]3(C)[C@@H](CC[C@]3(O)CCCO)[C@@H]3CCC4=CC(=O)CCC4=C32)cc1", "note": "[ZK98299]", "values": [
      {"measurement": "parturition rate", "setting": "Srd5a1 deficient mice", "value": 100, "unit": "%"}
    ]},
    {"molecule": "CCCCC/C=C/C=C1/C(=O)C=C[C@@H]1C/C=C\\CCCC(=O)O", "note": "[CC #1, 15-deoxy-Δ12,14-prostaglandin J2]", "values": [
      {"measurement": "dexamethasone-induced FKBP51 protein levels", "setting": "FKBP51 [1]", "value": "inhibits dexamethasone-induced FKBP51 protein levels"},
      {"measurement": "litter size", "setting": "[4]", "value": "did not affect litter size"},
      {"measurement": "maternal stress induced fetal growth restriction (pup birth weight)", "setting": "[4]", "value": "prevent maternal stress induced FGR"},
      {"measurement": "maternal stress induced preterm birth (gestational length)", "setting": "[4]", "value": "prevent maternal stress induced PTB"}
    ]}
  ]
}
